Assay results published in publication PMC7806630, “Molecular basis of the interaction of the human tyrosine phosphatase PTPN3 with the hepatitis B virus core protein” (Scientific Reports, 2021).

How the values were obtained:
DLG1_2 = experiment: holdup assay, DLG1_2 PDZ domain; assay type: binding, human; conditions: biotinylated PBM-HBc peptide, in duplicates, BI > 0.2 significant
SNTA1 = experiment: holdup assay, SNTA1 PDZ domain; assay type: binding, human; conditions: biotinylated PBM-HBc peptide, in duplicates, BI > 0.2 significant
GIPC1 = experiment: holdup assay, GIPC1 PDZ domain; assay type: binding, human; conditions: biotinylated PBM-HBc peptide, in duplicates, BI > 0.2 significant
DLG4_2_ = experiment: holdup assay, DLG4_2_ PDZ domain; assay type: binding, human; conditions: biotinylated PBM-HBc peptide, in duplicates, BI > 0.2 significant
MAGI1 = experiment: holdup assay, MAGI1 PDZ domain; assay type: binding, human; conditions: biotinylated PBM-HBc peptide, in duplicates, BI > 0.2 significant
GIPC2 = experiment: holdup assay, GIPC2 PDZ domain; assay type: binding, human; conditions: biotinylated PBM-HBc peptide, in duplicates, BI > 0.2 significant
MAGI3 = experiment: holdup assay, MAGI3 PDZ domain; assay type: binding, human; conditions: biotinylated PBM-HBc peptide, in duplicates, BI > 0.2 significant
SNTB2 = experiment: holdup assay, SNTB2 PDZ domain; assay type: binding, human; conditions: biotinylated PBM-HBc peptide, in duplicates, BI > 0.2 significant
DLG2_2 = experiment: holdup assay, DLG2_2 PDZ domain; assay type: binding, human; conditions: biotinylated PBM-HBc peptide, in duplicates, BI > 0.2 significant
DLG2_1 = experiment: holdup assay, DLG2_1 PDZ domain; assay type: binding, human; conditions: biotinylated PBM-HBc peptide, in duplicates, BI > 0.2 significant
DLG4_3 = experiment: holdup assay, DLG4_3 PDZ domain; assay type: binding, human; conditions: biotinylated PBM-HBc peptide, in duplicates, BI > 0.2 significant
SNTB1 = experiment: holdup assay, SNTB1 PDZ domain; assay type: binding, human; conditions: biotinylated PBM-HBc peptide, in duplicates, BI > 0.2 significant
TJP2 = experiment: holdup assay, TJP2 PDZ domain; assay type: binding, human; conditions: biotinylated PBM-HBc peptide, in duplicates, BI > 0.2 significant
DLG3_2 = experiment: holdup assay, DLG3_2 PDZ domain; assay type: binding, human; conditions: biotinylated PBM-HBc peptide, in duplicates, BI > 0.2 significant
InaDl = experiment: holdup assay, InaDl PDZ domain; assay type: binding, human; conditions: biotinylated PBM-HBc peptide, in duplicates, BI > 0.2 significant
DLG1_3 = experiment: holdup assay, DLG1_3 PDZ domain; assay type: binding, human; conditions: biotinylated PBM-HBc peptide, in duplicates, BI > 0.2 significant
PTPN4 = experiment: holdup assay, PTPN4 PDZ domain; assay type: binding, human; conditions: biotinylated PBM-HBc peptide, in duplicates, BI > 0.2 significant
STXB4 = experiment: holdup assay, STXB4 PDZ domain; assay type: binding, human; conditions: biotinylated PBM-HBc peptide, in duplicates, BI > 0.2 significant
SIPA1L2 = experiment: holdup assay, SIPA1L2 PDZ domain; assay type: binding, human; conditions: biotinylated PBM-HBc peptide, in duplicates, BI > 0.2 significant
DLG4_1 = experiment: holdup assay, DLG4_1 PDZ domain; assay type: binding, human; conditions: biotinylated PBM-HBc peptide, in duplicates, BI > 0.2 significant
DLG1_1 = experiment: holdup assay, DLG1_1 PDZ domain; assay type: binding, human; conditions: biotinylated PBM-HBc peptide, in duplicates, BI > 0.2 significant
MAGI2 = experiment: holdup assay, MAGI2 PDZ domain; assay type: binding, human; conditions: biotinylated PBM-HBc peptide, in duplicates, BI > 0.2 significant
MAST2 = experiment: holdup assay, MAST2 PDZ domain; assay type: binding, human; conditions: biotinylated PBM-HBc peptide, in duplicates, BI > 0.2 significant
SYNJ2BP = experiment: holdup assay, SYNJ2BP PDZ domain; assay type: binding, human; conditions: biotinylated PBM-HBc peptide, in duplicates, BI > 0.2 significant
SNX27 = experiment: holdup assay, SNX27 PDZ domain; assay type: binding, human; conditions: biotinylated PBM-HBc peptide, in duplicates, BI > 0.2 significant
[1] = test system: human PDZ domains (the PDZome); experiment: holdup assay, PDZome profile; assay type: binding; conditions: holdup assay against human PDZome, threshold BI = 0.2
MPDZ = experiment: holdup assay, MPDZ PDZ domain; assay type: binding, human; conditions: biotinylated PBM-HBc peptide, in duplicates, BI > 0.2 significant
SCRIB = experiment: holdup assay, SCRIB PDZ domain; assay type: binding, human; conditions: biotinylated PBM-HBc peptide, in duplicates, BI > 0.2 significant
PTPN3-PDZ [2] = conditions: previously reported; cited from earlier work
From the text: In the present study, we investigated the molecular mechanism of interaction between PTPN3 and HBc. […] We confirmed the interaction by NMR.

[3] = biological target: T1, PDZ domain of PTPN3 (PTPN3-PDZ), residues 489-597 (human, UniProt P26045 489-597); experiment: crystal structure; co-crystal of PTPN3-PDZ with PBM-HBc peptide added in excess; 20 mM HEPES pH 8, 150 mM NaCl, 0.5 mM TCEP; reservoir 20% PEG 3350, 0.2 M NaBr pH 7; 1.86 Å; conditions: both partners purified
T1 construct: not shown: GST, N-terminal, cleaved
T1 sequence (looked up): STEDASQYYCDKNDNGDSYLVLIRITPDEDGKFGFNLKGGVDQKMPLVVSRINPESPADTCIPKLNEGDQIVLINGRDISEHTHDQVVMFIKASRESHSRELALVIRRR

PTPN3-PDZ [4] = experiment: NMR binding of full-length HBc (CLPs) to PTPN3-PDZ; set-up: species or system human; conditions: 1H,15N HSQC-TROSY, 600 MHz, 20 °C, PTPN3-PDZ 95 μM, PDZ:HBc final ratio 1:19.4
Description: We then tested the complex formation between PTPN3-PDZ and the full-length HBc (Fig. 2c). ^1H, ^15N HSQC-TROSY spectra were recorded on ^15N-labeled PTPN3-PDZ in its free form (red signals in Fig. 2c) and in the presence of the unlabeled HBc full-length protein at different ratios. […] Indeed, wild type (WT) HBc proteins form homodimers and self-assemble into capsids, and the full-length HBc expressed in Escherichia coli mainly assembles into capsid-like particles (CLPs) of 3 to 5 million Da, as measured by analytical ultracentrifugation (AUC) (Fig. 2d). […] The molecular tumbling of PTPN3-PDZ is drastically slowed down when forming high molecular weight complexes with the CLPs, which induced the broadening of the linewidths of the PTPN3-PDZ signals beyond detection. Yet, the TROSY spectra of the complexes did contain a few peaks, which we attributed to regions of PTPN3-PDZ that remained mobile, probably the N-terminal and C-terminal extremities.
The NMR binding experiments between PTPN3-PDZ and full-length HBc as CLPs were performed at 20 °C on a 600-MHz BRUKER Avance III HD spectrometer equipped with a cryoprobe. […] A series of ^1H, ^15N HSQC-TROSY spectra was recorded for different titration points with a ratio PDZ:HBc (mol:mol) 1:0, 1:1.4, 1:5.6, and 1:19.4.

GST-PTPN3-PDZ = experiment: GST pull-down assay with GST-PTPN3-PDZ; assay type: binding, human; conditions: lysate of HeLa S3 cells overexpressing HF-tagged HBc; anti-HA Western blot; GST alone as negative control
Description: To investigate whether the PBM at the end of CTD of HBc is accessible to PTPN3 binding during capsid assembly, a glutathione S-transferase (GST) pull-down in vitro assay was performed with lysates of HeLa S3 cells overexpressing the HA-Flag-tagged either wild-type full-length HBc (HF-HBc WT) or its Y132A mutant (HF-HBc Y132A) that forms dimers but is unable to assemble into capsids[35] (Fig. 3a; Supporting Information Fig. 1). GST protein was used as a negative control. The expression of HF-HBc WT and HF-HBc Y132A in the cell lysates was verified by Western blot using the anti-HA antibody (Fig. 3a, lane 5). We also confirmed, using native Western blot, the presence of capsid in the HeLaS3 HBc WT cell lysate and its absence in the HeLaS3 HBc Y132A cell lysate (Fig. 3b).
The construct PTPN3-PDZ tagged with a N-terminal GST (GST-PTPN3-PDZ) was expressed and purified as previously described[25] without TEV cleavage. The additional TEV cleavage step of GST-PTPN3-PDZ provides the GST alone. […]
After lysate binding, the glutathione-agarose beads were washed four times with binding buffer, pelleted, and resuspended in SDS-PAGE sample buffer for Western blotting. After boiling, the bound proteins were analyzed using 12% SDS-PAGE followed by Western blotting using HRP-conjugated HA Epitope Tag monoclonal antibody (26183-HRP, THERMOFISHER) diluted to 1:2000. […]

With -RRRRSQSRESQC [HBc PBM] the “BI (binding intensity)” value (DLG1_2) was 0,40, the “BI (binding intensity)” value (SNTA1) was 0,25 and the “BI (binding intensity)” value (GIPC1) was 0,85. The “BI (binding intensity)” value (DLG4_2_) was 0,35, the “BI (binding intensity)” value (MAGI1) was 0,49 and the “BI (binding intensity)” value (GIPC2) was 0,31. The “BI (binding intensity)” value (MAGI3) was 0,78, the “BI (binding intensity)” value (SNTB2) was 0,38 and the “BI (binding intensity)” value (DLG2_2) was 0,38. The “BI (binding intensity)” value (DLG2_1) was 0,35, the “BI (binding intensity)” value (DLG4_3) was 0,53 and the “BI (binding intensity)” value (SNTB1) was 0,54. The “BI (binding intensity)” value (TJP2) was 0,27, the “BI (binding intensity)” value (DLG3_2) was 0,36 and the “BI (binding intensity)” value (InaDl) was 0,29. The “BI (binding intensity)” value (DLG1_3) was 0,34, the “BI (binding intensity)” value (PTPN4) was 0,58 and the “BI (binding intensity)” value (STXB4) was 0,47. The “BI (binding intensity)” value (SIPA1L2) was 0,24, the “BI (binding intensity)” value (DLG4_1) was 0,43 and the “BI (binding intensity)” value (DLG1_1) was 0,34. The “BI (binding intensity)” value (MAGI2) was 0,51, the “BI (binding intensity)” value (MAST2) was 0,21 and the “BI (binding intensity)” value (SYNJ2BP) was 0,43. For the same molecule, the “BI (binding intensity)” value (SNX27) was 0,39, the “number of potential HBc binders containing PDZ domains” value [1] was 28 and the “BI (binding intensity)” value (MPDZ) was 0,46. For the same molecule, the “BI (binding intensity)” value (SCRIB) was 0,23.

In the case of “ETQL [PBM-16E6, PBM of the HPV16 E6 protein, reference compound]”, the KD (PTPN3-PDZ [2]) is given as “a few tens of”.

For “NH2RRRRSQSRESQCCOOH [PBM-HBc, PBM-HBc peptide (NH2…OOH)]”, the KD (PTPN3-PDZ [2]) is given as “a few tens of”.

B1: PBM-HBc peptide (C-terminal PDZ-binding motif of the hepatitis B virus core protein) (peptide)
peptide: RRRRSQSRESQC
notes: also called PBM of HBc; source: synthetic peptide (Fmoc solid phase, PROTEOGENIX)
B1: binds [3].

B2: full-length HBc: full-length HBc expressed in Escherichia coli mainly assembles into capsid-like particles (CLPs) (protein)
chain: MDIDPYKEFGATVELLSFLPSDFFPSVRDLLDTASALYREALESPEHCSPHHTALRQAILCWGELMTLATWVGVNLEDPASRDLVVSYVNTNMGLKFRQLLWFHISCLTFGRETVIEYLVSFGVWIRTPPAYRPPNAPILSTLPETTVVRRRGRSPRRRTPSPRRRRSQSPRRRRSQSRESQC
With B2 the “effect on TROSY resonances of PTPN3-PDZ” value (PTPN3-PDZ [4]) was “nearly all of the TROSY resonances observed with free PTPN3-PDZ had disappeared”.

B3: HBc WT: HA-Flag-tagged wild-type full-length HBc (protein)
chain: MDIDPYKEFGATVELLSFLPSDFFPSVRDLLDTASALYREALESPEHCSPHHTALRQAILCWGELMTLATWVGVNLEDPASRDLVVSYVNTNMGLKFRQLLWFHISCLTFGRETVIEYLVSFGVWIRTPPAYRPPNAPILSTLPETTVVRRRGRSPRRRTPSPRRRRSQSPRRRRSQSRESQC
For B3, the “binding in GST pull-down” value (GST-PTPN3-PDZ) was “detected only in interaction with GST-PTPN3-PDZ”.
